According to patent US20220119354A1, “DIAMINO-SUBSTITUTED PYRIDINES AND PYRIMIDINES AS HERBICIDES” (FMC Corporation, priority 2019, published 2022):

How the values were obtained:
[1] = system: barnyardgrass (Echinochloa crus-galli); experiment: Test A postemergence, barnyardgrass; type: in vivo; conditions: Echinochloa crus-galli, post-emergence, 240 h, 0 to 100 scale, 0 no effect, 100 complete control, read-out: Plant response rating, Barnyardgrass; for pest or weed control at 125 g/ha: 125 g ai/ha; for pest or weed control at 500 g/ha: 500 g ai/ha
Procedure, shortened: (§1)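 Post: seedlings 2–10 cm, 1–2 leaves, foliar spray. Pre: soil spray after sowing in loam/sand blend. Both formulated in non-phytotoxic solvent with surfactant; injury scored visually 0–100 after ~10 d.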

[2] = system: pigweed (Amaranthus retroflexus); experiment: Test A preemergence, pigweed; type: in vivo; conditions: 0 to 100 scale, 0 is no effect, 100 is complete control
Procedure, shortened: as §1

[3] = system: wheat (Triticum aestivum); experiment: Test A postemergence, wheat; type: in vivo; conditions: Triticum aestivum, post-emergence, 240 h, 0 to 100 scale, 0 no effect, 100 complete control, read-out: Plant response rating, Wheat; for plant injury at 125 g/ha: 125 g ai/ha; for plant injury at 500 g/ha: 500 g ai/ha
Procedure, shortened: as §1

**Q.** Which pest or weed control at 125 g/ha [1] does the source give for `C[C@@H](Nc1ncc(C(F)(F)F)c(N)n1)c1cc2c(F)cccc2s1` [Compound 61, N2-[(1R)-1-(4-fluorobenzo[b]thien-2-yl)ethyl]-5-(trifluoromethyl)-2,4-pyrimidinediamine] here?
**A.** 80%

**Q.** What about the pest or weed control at 500 g/ha [1] of the same molecule?
**A.** 100%

**Q.** And the melting point?
**A.** 137 to 141 °C

**Q.** What about the “Pigweed plant response rating” value ([2]; 125 g ai/ha) of the same molecule?
**A.** 100

**Q.** And the “Pigweed plant response rating” value ([2]; 500 g ai/ha)?
**A.** 100

**Q.** And the plant injury at 125 g/ha [3]?
**A.** 20%

**Q.** What about the plant injury at 500 g/ha [3] of the same molecule?
**A.** 30%

**Q.** Which pest or weed control at 125 g/ha [1] does the source give for `C[C@@H](Nc1ncc(C(F)(F)F)c(N)n1)c1cc2cccc(F)c2o1` [Compound 71, N2-[(1R)-1-(7-fluoro-2-benzofuranyl)ethyl]-5-(trifluoromethyl)-2,4-pyrimidinediamine] here?
**A.** 30%

**Q.** And the pest or weed control at 500 g/ha [1]?
**A.** 100%

**Q.** What about the “Pigweed plant response rating” value ([2]; 125 g ai/ha) of the same molecule?
**A.** 100

**Q.** And the “Pigweed plant response rating” value ([2]; 500 g ai/ha)?
**A.** 100

**Q.** And the plant injury at 125 g/ha [3]?
**A.** 0%

**Q.** What about the plant injury at 500 g/ha [3] of the same molecule?
**A.** 0%

**Q.** Which results are given for `C[C@@H](Nc1ncc(C(F)(F)F)c(N)n1)c1cc2c(F)cccc2o1` [Compound 73, N2-[(1R)-1-(4-fluoro-2-benzofuranyl)ethyl]-5-(trifluoromethyl)-2,4-pyrimidinediamine]?
**A.** pest or weed control at 125 g/ha [1]: 60%; pest or weed control at 500 g/ha [1]: 100%; Pigweed plant response rating ([2]; 125 g ai/ha): 100; Pigweed plant response rating ([2]; 500 g ai/ha): 100; plant injury at 125 g/ha [3]: 0%; plant injury at 500 g/ha [3]: 0%

**Q.** Which results are given for `C[C@@H](Nc1ncc(C(F)(F)F)c(N)n1)c1cc2cccc(F)c2s1` [Compound 75, N2-[(1R)-1-(7-fluorobenzo[b]thien-2-yl)ethyl]-5-(trifluoromethyl)-2,4-pyrimidinediamine]?
**A.** pest or weed control at 125 g/ha [1]: 30%; pest or weed control at 500 g/ha [1]: 100%; Pigweed plant response rating ([2]; 125 g ai/ha): 100; Pigweed plant response rating ([2]; 500 g ai/ha): 100; plant injury at 125 g/ha [3]: 0%; plant injury at 500 g/ha [3]: 0%
